Reference: paper PMC4255919 (Nature, 2014)

What was measured:
[1] = biological target: GluCl (C. elegans GluClα, GluClcryst) (Caenorhabditis elegans, UniProt G5EBR3, DEL364-421/INS363AGT); assay: radioligand competition with [3H]-ivermectin; type: binding
[2] = biological target: T1, GluCl (C. elegans GluClα, GluClcryst) (Caenorhabditis elegans, UniProt G5EBR3, INS363AGT/DEL364-421); assay: X-ray crystal structure at […] Å; type: binding
T1 sequence (G5EBR3 with tags, fused parts or gaps INS363AGT/DEL364-421): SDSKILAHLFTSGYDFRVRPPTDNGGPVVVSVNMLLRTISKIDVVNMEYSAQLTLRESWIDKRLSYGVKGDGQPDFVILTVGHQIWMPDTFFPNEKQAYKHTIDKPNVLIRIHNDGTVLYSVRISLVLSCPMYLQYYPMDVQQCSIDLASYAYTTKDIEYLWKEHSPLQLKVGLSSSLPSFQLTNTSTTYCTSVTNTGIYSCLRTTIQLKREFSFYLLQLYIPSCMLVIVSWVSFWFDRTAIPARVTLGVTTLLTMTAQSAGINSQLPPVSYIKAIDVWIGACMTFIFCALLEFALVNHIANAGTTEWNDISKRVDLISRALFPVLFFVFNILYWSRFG

Compound | Ki [1] [µM] | X-ray crystal structure at 3.2 Å [2]
CCCCCCCC/C=C\CCCCCCCC(=O)O[C@H](COC(=O)CCCCCCCCCCCCCCC)COP(=O)(O)OC[C@H](N)C(=O)O [POPS, 1-palmitoyl-2-oleoyl-sn-glycero-3-phosphoserine] | 167 | –
CCCCCCCC/C=C\CCCCCCCC(=O)O[C@@H](COC(=O)CCCCCCCCCCCCCCC)COP(=O)([O-])OCC[N+](C)(C)C [POPC, 1-palmitoyl-2-oleoyl-sn-glycero-3-phosphocholine] | – | We modeled these densities as POPC molecules with the phosphocholine head group pointing towards the center of the pore
